The text below walks through data of patent publication US20160296529A1, “AMINOTRIAZOLOPYRIDINE FOR USE IN THE TREATMENT OF INFLAMMATION, AND PHARMACEUTICAL COMPOSITIONS THEREOF” (priority 2012, published 2016).

One assay deals with JAK-STAT. Briefly: JAK-STAT signalling assay (OSM-triggered pSTAT1(2)-luciferase reporter in HeLa cells). The format is cell-based, human. How it is done: HeLa cells were maintained in Dulbecco's Modified Eagle's Medium (DMEM) containing 10% heat inactivated fetal calf serum, 100 U/mL penicillin and 100 μg/mL streptomycin. HeLa cells were used at 70% confluence for transfection. 20,000 cells in 87 μL cell culture medium were transiently transfected with 40 ng pSTAT1(2)-luciferase reporter (Panomics), 8 ng of LacZ reporter as internal control reporter and 52 ng of pBSK using 0.32 μL Jet-PEI (Polyplus) as transfection reagent per well in 96-well plate format. After overnight incubation at 37° C., 5% CO2, transfection medium was removed. 81 μL of DMEM+1.5% heat inactivated fetal calf serum was added. 9 μL compound at 10× concentration was added for 60 min and then 10 μL of human OSM (Peprotech) at 33 ng/mL final concentration.
The compound was tested in duplicate starting from 20 μM followed by a 1/3 serial dilution, 8 doses in total (20 μM-6.6 μM-2.2 μM-740 nM-250 nM-82 nM-27 nM-9 nM) in a final concentration of 0.2% DMSO.
After overnight incubation at 37° C., 5% CO2 cells were lysed by adding 100 μL lysis buffer/well (PBS, 0.9 mM CaCl2, 0.5 mM MgCl2, 10% Trehalose, 0.05% Tergitol NP9, 0.3% BSA).
40 μL of cell lysate was used to read β-galactosidase activity by adding 180 μL 11-Gal solution (30 μL ONPG 4 mg/mL+150 μL β-Galactosidase buffer (0.06 M Na2HPO4, 0.04 M NaH2PO4, 1 mM MgCl2)) for 20 min. The reaction was stopped by addition of 50 μL Na2CO3 1 M. Absorbance was read at 405 nm.
Luciferase activity was measured using 40 μL cell lysate plus 40 μL of Steadylite® as described by the manufacturer (Perkin Elmer), on the Envision (Perkin Elmer).
Omitting OSM was used as a positive control (100% inhibition). As negative control […] (0% inhibition) was used. The positive and negative controls were used to calculate z′ and ‘percent inhibition’ (PIN) values.
Percentage inhibition=((fluorescence determined in the presence of vehicle−fluorescence determined for sample with test compound present) divided by (fluorescence determined in the presence of vehicle−fluorescence determined for sample without trigger))*100.
PIN values were plotted for compounds tested in dose-response and EC50 values were derived.

For assay [1], the target named is T1, Recombinant human JAK2 catalytic domain (Homo sapiens, UniProt O60674).
T1 construct: amino acids 808-1132; catalog number PV4210; GST; purchased Invitrogen PV4210
T1 sequence (O60674 808-1132): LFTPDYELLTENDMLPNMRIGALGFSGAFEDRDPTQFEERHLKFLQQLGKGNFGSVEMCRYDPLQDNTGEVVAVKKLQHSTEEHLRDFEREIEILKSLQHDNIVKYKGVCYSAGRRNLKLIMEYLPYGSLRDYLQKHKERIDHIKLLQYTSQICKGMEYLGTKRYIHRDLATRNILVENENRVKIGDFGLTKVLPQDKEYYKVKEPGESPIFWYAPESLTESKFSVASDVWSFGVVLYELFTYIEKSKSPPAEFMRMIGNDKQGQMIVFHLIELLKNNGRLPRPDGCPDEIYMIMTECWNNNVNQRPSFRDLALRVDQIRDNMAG
In words: JAK2 assay polyGT substrate. It is filed as biochemical. Here is the method:
Recombinant human JAK2 catalytic domain (amino acids 808-1132; catalog number PV4210) was purchased from Invitrogen. 0.05 mU of JAK2 was incubated with 2.5 μg polyGT substrate (Sigma catalog number P0275) in kinase reaction buffer (10 mM MOPS pH 7.5, 0.5 mM EDTA, 0.01% Brij-35, 1 mM DTT, 15 mM MgAc, 1 μM non-radioactive ATP, 0.25 μCi ^33P-gamma-ATP (Perkin Elmer, catalog number NEG602K001MC) final concentrations) with or without 5 μL containing test compound or vehicle (DMSO, 1% final concentration), in a total volume of 25 μL, in a polypropylene 96-well plate (Greiner, V-bottom). After 90 min at 30° C., reactions were stopped by adding of 25 μL/well of 150 mM phosphoric acid. […] 40 μL/well of Microscint-20 was added, the top of the plates was sealed and readout was performed using the Topcount (Perkin Elmer). Kinase activity was calculated by subtracting counts per min (cpm) obtained in the presence of a positive control inhibitor (10 μM staurosporine) from cpm obtained in the presence of vehicle. The ability of a test compound to inhibit this activity was determined as:
Percentage inhibition=((cpm determined for sample with test compound present−cpm determined for sample with positive control inhibitor) divided by (cpm determined in the presence of vehicle−cpm determined for sample with positive control inhibitor))*100. […]

Where [2] appears, read: individual determinations, read-out: IC50.

For orientation: IC50 means the point on the concentration scale where inhibition reaches its midpoint.

Where “and” joins values, the source holds several entries; their conditions need not be identical. Equal entries are not always repeated. Where two headings read alike, the source gives them in different places.

As for `Nc1nc2cccc(-c3ccc(CN4CCS(=O)(=O)CC4)cc3)n2n1` [Formula I, 5-[4-(1,1-Dioxothiomorpholin-4-ylmethyl)-phenyl]-[1,2,4]triazolo[1,5-a]pyridin-2-ylamine], the IC50 is > 7430 nM in the assay with JAK-STAT (Homo sapiens, HeLa, average, read-out: IC50 (average)); > 6670 nM in the assay on JAK-STAT (Homo sapiens, HeLa, individual determinations, read-out: IC50); “Non active” with JAK-STAT (individual determinations); > 6670 nM and 8940 nM with JAK-STAT (setting [2]); 624 nM in assay [1] (average, read-out: IC50 (average)); 567 nM and 365 nM and 256 nM and 915 nM and 1020 nM in assay [1] (setting [2]).
